Assay results taken from ChEMBL document CHEMBL1201862, “PubChem BioAssay data set” (2004).
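Briefly, cells in 96-well plates were exposed to five compound concentrations for 48 h, and endpoints were estimated by linear interpolation. GI50 marks 50% less growth.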 Active and inactive are the calls of the source. No stated cut-off is given here; in the data, active = GI50 up to about 1.1 µM and inactive = higher.

How the values were obtained:
Test in all cases: growth of human tumour cells (NCI), 48 h
U-251 = tested on: U-251
HOP-92 = tested on: HOP-92
BT-549 = tested on: BT-549
NCI-H23 = tested on: NCI-H23
SF-295 = tested on: SF-295
OVCAR-4 = tested on: OVCAR-4
CCRF-CEM = tested on: CCRF-CEM
OVCAR-3 = tested on: OVCAR-3
HOP-62 = tested on: HOP-62
K562 = tested on: K562
UACC-257 = tested on: UACC-257
DU-145 = tested on: DU-145
MDA-N = tested on: MDA-N
TK-10 = tested on: TK-10
ACHN = tested on: ACHN
HCC 2998 = tested on: HCC 2998
SR = tested on: SR
MCF7 = tested on: MCF7
SK-OV-3 = tested on: SK-OV-3

Row | SMILES | GI50 (U-251) | GI50 (HOP-92) | GI50 (BT-549) | GI50 (NCI-H23) | GI50 (SF-295) | GI50 (OVCAR-4) | GI50 (CCRF-CEM) | GI50 (OVCAR-3) | GI50 (HOP-62) | GI50 (K562) | GI50 (UACC-257) | GI50 (DU-145) | GI50 (MDA-N) | GI50 (TK-10) | GI50 (ACHN) | GI50 (HCC 2998) | GI50 (SR) | GI50 (MCF7) | GI50 (SK-OV-3)
1 | N#CC12CNCC1CN=N2 (centres undefined) | > 100 µM (inactive) | > 100 µM (inactive) | > 100 µM (inactive) | > 100 µM (inactive) | > 100 µM (inactive) | > 100 µM (inactive) | > 100 µM (inactive) | > 100 µM (inactive) | > 100 µM (inactive) | > 100 µM (inactive) | > 100 µM (inactive) | > 100 µM (inactive) | > 100 µM (inactive) | > 100 µM (inactive) | > 100 µM (inactive) | > 100 µM (inactive) | > 100 µM (inactive) | > 100 µM (inactive) | 
2 | COc1ccc(C/C=C(\C)CCO)cc1 | > 100 µM (inactive) | > 100 µM (inactive) | > 100 µM (inactive) | > 100 µM (inactive) | > 100 µM (inactive) | > 100 µM (inactive) | > 100 µM (inactive) | > 100 µM (inactive) | > 100 µM (inactive) | > 100 µM (inactive) | > 100 µM (inactive) | > 100 µM (inactive) | > 100 µM (inactive) | > 100 µM (inactive) | > 100 µM (inactive) |  | > 100 µM (inactive) | > 100 µM (inactive) | > 100 µM (inactive)
3 | COC(=O)CNC(=O)/C=C/[C@H](O[Si](C)(C)C(C)(C)C)[C@H](/C=C/C(=O)NCC(=O)OC)O[Si](C)(C)C(C)(C)C | > 25 µM (inactive) | > 25 µM (inactive) | > 25 µM (inactive) | > 25 µM (inactive) | > 25 µM (inactive) | > 25 µM (inactive) | > 25 µM (inactive) | > 25 µM (inactive) | > 25 µM (inactive) | > 25 µM (inactive) | > 25 µM (inactive) | > 25 µM (inactive) | > 25 µM (inactive) | > 25 µM (inactive) | > 25 µM (inactive) | > 25 µM (inactive) | > 25 µM (inactive) | > 25 µM (inactive) | > 25 µM (inactive)
4 | CC1OC2OC3C(OCC(O)C3O)OC(=O)[C@]34CCC(C)(C)CC3C3=CCC5[C@@]6(C)C[C@H](O)[C@H](OC7OC(CO)C(O)C(O)C7OC7OC(COC(=O)CC(C)(O)CC(=O)OC1C(O)C2O)C(O)C(O)C7O)[C@@](C)(CO)C6CC[C@@]5(C)[C@]3(C)CC4 (some centres undefined) | 1.57 µM (inactive) | 1.54 µM (inactive) | 1.5 µM (inactive) | 1.64 µM (inactive) | 1.78 µM (inactive) | 1.51 µM (inactive) | 1.51 µM (inactive) | 1.53 µM (inactive) | 1.44 µM (inactive) |  | 1.43 µM (inactive) | 1.75 µM (inactive) | 1.52 µM (inactive) | 1.61 µM (inactive) | 1.32 µM (inactive) | 1.32 µM (inactive) | 1.6 µM (inactive) | 4.46 µM (inactive) | 1.56 µM (inactive)
5 | O=c1[nH]c2ccc(C(F)(F)F)cc2nc1C(F)(F)F | 35 µM (inactive) | 9.4 µM (inactive) | 22.2 µM (inactive) | 18.1 µM (inactive) | 28.7 µM (inactive) | 36.6 µM (inactive) | 11.1 µM (inactive) | 14.9 µM (inactive) | 18.3 µM (inactive) | 35.7 µM (inactive) | 23.6 µM (inactive) | 23.2 µM (inactive) | 35.7 µM (inactive) | 27.9 µM (inactive) | 30.9 µM (inactive) | 43.4 µM (inactive) | 39.4 µM (inactive) | 23 µM (inactive) | 27.1 µM (inactive)
6 | C=C1C(=O)O[C@H]2C1C[C@@H](OC(C)=O)/C(C)=C/CC[C@@]1(C)O[C@H]21 (some centres undefined) | 70.1 µM (inactive) | 16 µM (inactive) | 5.92 µM (inactive) | 15.1 µM (inactive) | 21.1 µM (inactive) | 13 µM (inactive) | 1.77 µM (inactive) |  | 17.6 µM (inactive) | 2.09 µM (inactive) | 1.34 µM (inactive) | 14.6 µM (inactive) | 2.93 µM (inactive) | 6.12 µM (inactive) | 4.33 µM (inactive) | 13 µM (inactive) | 3.38 µM (inactive) | 10.3 µM (inactive) | 26.9 µM (inactive)
7 | O=C1CSC2(CC(/C=C/c3ccccc3O)=NN2c2cccc(S(=O)(=O)O)c2)N1c1nc2ccccc2s1 (centres undefined) | 33.9 µM (inactive) | 25.6 µM (inactive) | 24.9 µM (inactive) | 22.1 µM (inactive) |  | 22 µM (inactive) | 14.6 µM (inactive) |  |  | 24.7 µM (inactive) | 41.7 µM (inactive) | 30.5 µM (inactive) | 38.3 µM (inactive) | 20 µM (inactive) | 32.1 µM (inactive) | 21.9 µM (inactive) | 18.4 µM (inactive) | 34.3 µM (inactive) | 
8 | O=C1CC[C@@]2(O)[C@H]3Cc4ccc(-c5ccccc5)c5c4[C@@]2(CCN3CC2CC2)[C@H]1O5 | 17 µM (inactive) | 16.2 µM (inactive) | 14.3 µM (inactive) | 24.1 µM (inactive) | 19.2 µM (inactive) | 35.9 µM (inactive) | 24.4 µM (inactive) | 18.1 µM (inactive) | 22.4 µM (inactive) | 24.3 µM (inactive) | 16 µM (inactive) | 23.3 µM (inactive) | 16.4 µM (inactive) | 17.6 µM (inactive) | 20.6 µM (inactive) | 18.4 µM (inactive) | 25.9 µM (inactive) | 18.2 µM (inactive) | 23.9 µM (inactive)
9 | O=C(/C=C/c1ccccc1)OCC1=C[C@@H](O)[C@@H]2C=CO[C@@H](OC3OC(CO)C(O)C(O)C3O)[C@H]12 (some centres undefined) | > 100 µM (inactive) | > 100 µM (inactive) | > 100 µM (inactive) | > 100 µM (inactive) | > 100 µM (inactive) | 67.6 µM (inactive) | > 100 µM (inactive) | > 100 µM (inactive) | > 100 µM (inactive) |  | > 100 µM (inactive) | > 100 µM (inactive) | > 100 µM (inactive) | > 100 µM (inactive) | > 100 µM (inactive) | > 100 µM (inactive) | > 100 µM (inactive) | > 100 µM (inactive) | > 100 µM (inactive)
10 | CC(=O)c1csc2c1C(=O)c1ccccc1C2=O | 2.88 µM (inactive) | 30.5 µM (inactive) | 1.62 µM (inactive) | 1.26 µM (inactive) | 1.55 µM (inactive) | 6.04 µM (inactive) | 1.56 µM (inactive) | 3.66 µM (inactive) | 1.97 µM (inactive) | 3.92 µM (inactive) | 1.46 µM (inactive) | 1.67 µM (inactive) | 1.22 µM (inactive) | 1.79 µM (inactive) | 2.02 µM (inactive) | 1.75 µM (inactive) | 3.66 µM (inactive) | 2.1 µM (inactive) | 38.1 µM (inactive)
11 | N[C@H](C(=O)O)[C@@H]1CC(Cl)=NO1 [ACIVICIN] | 2.21 µM (inactive) | 33.2 µM (inactive) | 43 µM (inactive) | 4.07 µM (inactive) |  | 14.6 µM (inactive) | 1.19 µM (inactive) | 2.17 µM (inactive) | 1.42 µM (inactive) | 2.46 µM (inactive) | 4.8 µM (inactive) | 2.48 µM (inactive) | 4.06 µM (inactive) | 2.7 µM (inactive) | 1.47 µM (inactive) | 8.99 µM (inactive) | 0.74 µM (active) | 0.676 µM (active) | 12.6 µM (inactive)
